Publication PMC11047580, “Design and Synthesis of Novel Amino and Acetamidoaurones with Antimicrobial Activities” (Antibiotics, 2024)
In brackets after ≈: the same amount, converted by molar mass.

Key:
B. subtilis ATCC6633 = assay: MIC assay; type: cell-based, Bacillus subtilis; details: Bacillus subtilis, ATCC6633; two-fold serial dilutions in liquid media; n = 2–3
P. aeruginosa ATCC9027 = assay: MIC assay; type: cell-based, Pseudomonas aeruginosa; details: Pseudomonas aeruginosa, ATCC9027; two-fold serial dilutions in liquid media; n = 2–3
M. smegmatis ATCC700084 = assay: MIC assay (REMA); type: cell-based, Mycobacterium smegmatis; details: Mycolicibacterium smegmatis, ATCC700084, REMA microdilution, n = 2–3
C. albicans DSM10697 = assay: MIC assay; type: cell-based, Candida albicans; details: Candida albicans, DSM10697; two-fold serial dilutions in liquid media; n = 2–3
[1] = system: Bacillus anthracis (CNR-charbon_04022); assay: microbe, parasite or virus in culture; type: cell-based; details: read-out: MIC Bacillus anthracis (CNR-charbon_04022)
Bacillus cereus (DSM31) = assay: MIC assay; type: cell-based; details: two-fold serial dilutions in liquid media, n = 2–3
[2] = system: Clostridium botulinum (DSM1985); assay: microbe, parasite or virus in culture; type: cell-based; details: DSM1985, read-out: MIC Clostridium botulinum (DSM1985)
[3] = system: Clostridium difficile (DSM1296); assay: MIC assay; type: cell-based; details: Clostridioides difficile, two-fold serial dilutions in liquid media, n = 2–3
[4] = system: Clostridium perfringens (ATCC13124); assay: microbe, parasite or virus in culture; type: cell-based; details: ATCC13124, read-out: MIC Clostridium perfringens (ATCC13124)
[5] = system: Enterococcus faecalis (DSM2570); assay: MIC assay; type: cell-based; details: two-fold serial dilutions in liquid media, n = 2–3
[6] = system: Enterococcus faecium (DSM20477); assay: MIC assay; type: cell-based; details: two-fold serial dilutions in liquid media, n = 2–3
[7] = system: Propionibacterium acnes (ATCC6919); assay: MIC assay; type: cell-based; details: Cutibacterium acnes, two-fold serial dilutions in liquid media, n = 2–3
[8] = system: Streptococcus pyogenes (DSM20565); assay: MIC assay; type: cell-based; details: two-fold serial dilutions in liquid media, n = 2–3
[9] = system: Acinetobacter baumannii (DSM30007); assay: MIC assay; type: cell-based; details: two-fold serial dilutions in liquid media, n = 2–3
[10] = system: Brucella melitensis (NR-256); assay: microbe, parasite or virus in culture; type: cell-based; details: read-out: MIC Brucella melitensis (NR-256)
[11] = system: Enterobacter cloacae (DSM30054); assay: MIC assay; type: cell-based; details: two-fold serial dilutions in liquid media, n = 2–3
[12] = system: Francisella tularensis (NR-643); assay: microbe, parasite or virus in culture; type: cell-based; details: read-out: MIC Francisella tularensis (NR-643)
[13] = system: Helicobacter pylori (ATCC43504); assay: MIC assay; type: cell-based; details: two-fold serial dilutions in liquid media, n = 2–3
[14] = system: Salmonella enterica (CIP80.39); assay: MIC assay; type: cell-based; details: two-fold serial dilutions in liquid media, n = 2–3
[15] = system: Shigella flexneri (ATCC12022); assay: MIC assay; type: cell-based; details: two-fold serial dilutions in liquid media, n = 2–3
[16] = system: Vibrio alginolyticus (DSM2171); assay: MIC assay; type: cell-based; details: two-fold serial dilutions in liquid media, n = 2–3
Yersinia pestis (NR-641) = assay: microbe, parasite or virus in culture; type: cell-based; details: read-out: MIC Yersinia pestis (NR-641)
[17] = system: Mycobacterium abscessus S (CIP 104536^T); assay: MIC assay (REMA); type: cell-based; details: REMA microdilution, n = 2–3
[18] = system: Aspergillus fumigatus (DSM819); assay: MIC assay; type: cell-based; details: two-fold serial dilutions in liquid media, n = 2–3
Candida auris (DSM21092) = assay: MIC assay; type: cell-based; details: Candidozyma auris, two-fold serial dilutions in liquid media, n = 2–3
[19] = system: Candida tropicalis (DSM9419); assay: MIC assay; type: cell-based; details: two-fold serial dilutions in liquid media, n = 2–3
[20] = system: Cryptococcus neoformans (DSM11959); assay: MIC assay; type: cell-based; details: two-fold serial dilutions in liquid media, n = 2–3
[21] = system: kidney epithelial cell line A498; details: human
[22] = system: intestinal cell line Caco-2; details: human
[23] = system: normal epidermal keratinocytes (HaCaT); details: human
liver cell line HepG2 = details: human
[24] = system: normal lung fibroblasts IMR-90; details: human
[25] = system: human cells (A498, BEAS-2B, Caco-2, HaCaT, HepG2, IMR-90)
[26] = Cytotoxic assay (resazurin); details: human, A498 kidney epithelial cells
[27] = Cytotoxic assay (resazurin); details: human, BEAS-2B normal lung epithelial cells
[28] = Cytotoxic assay (resazurin); details: human, Caco-2
[29] = Cytotoxic assay (resazurin); details: human, IMR-90 normal lung fibroblasts
[30] = Cytotoxic assay, summary over the six human cell types; details: human, 48 h exposure
[31] = system: human cells (A498, BEAS-2B, Caco-2, HaCaT, HepG2, IMR-90); assay: as above

SMILES: CC(=O)Nc1ccc2c(c1)C(=O)/C(=C/c1cccc(OCc3ccccc3)c1)O2 [Compound 10, (Z)-N-(2-(3-(benzyloxy)benzylidene)-3-oxo-2,3-dihydrobenzofuran-5-yl)acetamide]
- MIC (B. subtilis ATCC6633): 3.12 µM (≈ 1.2 µg/mL)
- MIC (P. aeruginosa ATCC9027): 25 µM (≈ 9.64 µg/mL)
- MIC (M. smegmatis ATCC700084): 50 µM (≈ 19.3 µg/mL)
- MIC (C. albicans DSM10697): 50 µM (≈ 19.3 µg/mL)
- MIC [1]: 12.5 µM (≈ 4.82 µg/mL)
- MIC (Bacillus cereus (DSM31)): 12.5 µM (≈ 4.82 µg/mL)
- MIC [2]: 0.78 µM (≈ 0.301 µg/mL)
- MIC [3]: 12.5 µM (≈ 4.82 µg/mL)
- MIC [4]: > 100 µM
- MIC [5]: 50 µM (≈ 19.3 µg/mL)
- MIC [6]: 100 µM (≈ 38.5 µg/mL)
- MIC [7]: 100 µM (≈ 38.5 µg/mL)
- MIC [8]: 50 µM (≈ 19.3 µg/mL)
- MIC [9]: 12.5 µM (≈ 4.82 µg/mL)
- MIC [10]: 25 µM (≈ 9.64 µg/mL)
- MIC ([11]; Enterobacter cloacae, DSM30054): > 100 µM
- MIC [11]: >100 µM
- MIC [12]: 50 µM (≈ 19.3 µg/mL)
- MIC [13]: 12.5 µM (≈ 4.82 µg/mL)
- MIC [14]: 25 µM (≈ 9.64 µg/mL)
- MIC [15]: 25 µM (≈ 9.64 µg/mL)
- MIC [16]: 25 µM (≈ 9.64 µg/mL)
- MIC (Yersinia pestis (NR-641)): 12.5 µM (≈ 4.82 µg/mL)
- MIC ([17]; Mycobacteroides abscessus, CIP104536, S morphotype): > 100 µM
- MIC Mycobacterium abscessus S (CIP 104536^T) ([17]; S morphotype): inactive
- MIC ([18]; Aspergillus fumigatus, DSM819): > 100 µM
- MIC Aspergillus fumigatus (DSM819) [18]: inactive
- MIC (Candida auris (DSM21092)): 50 µM (≈ 19.3 µg/mL)
- MIC [19]: 100 µM (≈ 38.5 µg/mL)
- MIC [20]: 25 µM (≈ 9.64 µg/mL)
- TI with MIC of 0.78 µM, A498 [21]: 510.5
- TI with MIC of 0.78 µM, Caco-2 [22]: 255.8
- TI with MIC of 0.78 µM, HaCaT [23]: 344.2
- TI with MIC of 0.78 µM, HepG-2 (liver cell line HepG2): 605.6
- TI with MIC of 0.78 µM, IMR-90 [24]: 540.2
- TI values, range over human cells [25]: 216.6-605.6
- CC50 at 48 h [26]: 398 µM
- CC50 at 48 h [27]: 169 µM
- CC50 at 48 h [28]: 200 µM
- CC50 at 48 h [29]: 421 µM
- CC50 at 48 h ([30]; Highest CC50, highest of the six human cell types): 472 µM
- CC50 at 48 h ([30]; Lowest CC50, lowest of the six human cell types): 169 µM
- CC50 at 48 h ([30]; Mean CC50, mean over the six human cell types): 322 µM
- Highest TI ([31]; highest CC50 on human cells divided by MIC on S. aureus): 37.7
- Lowest TI ([31]; lowest CC50 on human cells divided by MIC on S. aureus): 13.5
